Experiments:
Test in all cases: Deferred antagonism assay, producer S. salivarius K12
Type in all cases: cell-based
[1] = system: S. constellatus T29
Protocol: (§1) 1-2 producer strain colonies were transferred from a stock plate into 900 μL of suspension solution using a fresh cotton swab. Following this, suspensions were vortexed, and a sample was inoculated onto solid culture media using a fresh cotton swab. The inoculation was a streak that runs diametrically across the agar plate in a 1.5 cm wide strip. The plate was then incubated. Following incubation all visible colonies were removed by swabbing them from the agar surface. The plates were then treated with chloroform by dispensing 2 ml of chloroform onto 4 cm×4 cm piece of cloth and sealing the inverted agar plate on top for 30 minutes. The plates were then air dried for 30 minutes following chloroforming. 1-2 indicator strain colonies were then transferred from a stock plate into complementary suspension solution. The suspensions were then vortexed, and a sample was inoculated onto the same agar surface. These samples were streaked in a perpendicular direction to the initial producer streak.
(§2) Each indicator streak was prepared with fresh a suspension containing cells from a corresponding stock plate containing the indicator strain of interest. Indicator strains suspension samples were transferred using a fresh cotton swab. Results were measured by qualitatively reviewing the subsequent (if any) sizes of the zones of inhibition (ZOI) of indicator strain colony growth. A positive result is when there is a distinctive reduction or complete inhibition of indicator colony growth on the culture medium.
(§3) CABCa agar plates containing various concentrations of saccharide were prepared according to the methods described in Method 1. Producer strains were transferred from stock agar plates into 900 μL THB using a fresh cotton swab. A plastic spread plater was cut to approximately 1.2 cm width and then dipped into ethanol and left to air dry to ensure sterility. A 100 μL sample of the producer strain suspension was then dispensed onto the agar surface in a straight line running diametrically across the agar surface in (approximately) 20 μL spots. The spots were spaced approximately 1.5 cm apart from each other. The plastic spreader was then used to evenly distribute the spots across the agar surface in a 1.5 cm wide strip. This step was taken to ensure an even producer streak was inoculated onto the agar surface and provided an approximate measure of the initial inoculum concentration. Separate plastic spreaders were used for samples containing different producer strains. The samples were left to soak into the agar surface until there was no visible liquid remaining on the agar surface (approximately 20 minutes). Following producer streak preparations, the deferred antagonism assay protocol was followed as per Method 2. Results were recorded by measuring the size of the zone of inhibition (ZOI) in mm.
(§4) A dose response assay was carried out according to method 3 above, except a 1.2 cm streak was used. For the individual saccharide testing the pH of the producer streak was adjusted after the growth of producer to change the acidic conditions.
(§5) A deferred antagonism assay was conducted using K12 or M18 raw ingredient suspended in Todd Hewitt broth (THB). This was spread as a 1.2 cm streak containing approximately 1-2×10^6 cfu down the middle of a CABCa control or CABCa galactose supplemented test plate. After 18 hrs growth at 37° C. with 5% CO2, bacterial growth was removed, and the pH of the agar in the initial streak was measured and adjusted to a pH of 6.5-7.5 using 0.5M sodium carbonate pH11 before sterilizing the agar surface using chloroform vapor. Bacterial test strains were suspended in i-THB before being swabbed across the plates perpendicular to the initial streak. Plates were incubated for a further 18 hrs incubation at 37° C. with 5% CO2 before measuring (mm) any zones of inhibition for each test strain, […]

[2] = system: S. mutans OMZ175
Protocol: as §1, §2, §3, §4, §5

[3] = system: S. pyogenes 71-698
Protocol: as §1, §2, §3, §4, §5

[4] = K12, Raffinose 1.7% wt, pH adjusted
[5] = K12, Raffinose 2.5% wt, pH adjusted
[6] = K12, Raffinose 3.3% wt, pH adjusted
[7] = K12, Raffinose 5% wt, pH adjusted
[8] = K12, Raffinose 10% wt, pH adjusted

## OC[C@H]1O[C@H](OC[C@H]2O[C@H](O[C@]3(CO)O[C@H](CO)[C@@H](O)[C@@H]3O)[C@H](O)[C@@H](O)[C@@H]2O)[C@H](O)[C@@H](O)[C@H]1O [Raffinose, D-(+) Raffinose pentahydrate]
[1]; 0.5 to 10% w/v raffinose
  inhibition by K12 of S. constellatus T-29: increase in inhibition
[1]; K12, Raffinose 1.7% wt
  Zone of inhibition S. constellatus T29: 8 mm
[1]; [4]
  Zone of inhibition S. constellatus T29: 4 mm
[1]; K12, Raffinose 2.5% wt
  Zone of inhibition S. constellatus T29: 22 mm
[1]; [5]
  Zone of inhibition S. constellatus T29: 18 mm
[1]; [6]
  Zone of inhibition S. constellatus T29: 16 mm
[1]; [7]
  Zone of inhibition S. constellatus T29: 12 mm
[1]; K12, Raffinose 10% wt
  Zone of inhibition S. constellatus T29: 2 mm
[1]; [8]
  Zone of inhibition S. constellatus T29: 11 mm
[2]; 2.5, 5 and 10% w/v raffinose added
  sensitivity of S. mutans OMZ175 to K12: sensitive
[2]; K12, Raffinose 1.7% wt
  Zone of inhibition S. mutans OMZ175: 11 mm
[2]; [4]
  Zone of inhibition S. mutans OMZ175: 7 mm
[2]; K12, Raffinose 2.5% wt
  Zone of inhibition S. mutans OMZ175: 16 mm
[2]; [5]
  Zone of inhibition S. mutans OMZ175: 13 mm
[2]; K12, Raffinose 3.3% wt
  Zone of inhibition S. mutans OMZ175: 16 mm
[2]; [6]
  Zone of inhibition S. mutans OMZ175: 14 mm
[2]; K12, Raffinose 5% wt
  Zone of inhibition S. mutans OMZ175: 16 mm
[2]; [7]
  Zone of inhibition S. mutans OMZ175: 15 mm
[2]; K12, Raffinose 10% wt
  Zone of inhibition S. mutans OMZ175: 15 mm
[2]; [8]
  Zone of inhibition S. mutans OMZ175: 10 mm
[2]; K12, saccharide 3.3% w/v
  Inhibitory activity of S. salivarius K12 in presence of saccharides, S. mutans OMZ175: ✓
[2]; K12, saccharide range 2.5%-10% w/v
  Inhibitory activity of S. salivarius K12 in presence of saccharides, S. mutans OMZ175: ✓
[3]; 0.5 to 10% w/v raffinose
  inhibition by K12 of S. pyogenes: increase in inhibition
[3]; K12, Raffinose 1.7% wt
  Zone of inhibition S. pyogenes 71-698: 10 mm
[3]; [4]
  Zone of inhibition S. pyogenes 71-698: 4 mm
[3]; K12, Raffinose 2.5% wt
  Zone of inhibition S. pyogenes 71-698: 9 mm
[3]; [5]
  Zone of inhibition S. pyogenes 71-698: 3 mm
[3]; K12, Raffinose 3.3% wt
  Zone of inhibition S. pyogenes 71-698: 11 mm
[3]; K12, Raffinose 5% wt
  Zone of inhibition S. pyogenes 71-698: 7 mm
[3]; [7]
  Zone of inhibition S. pyogenes 71-698: 1 mm
[3]; K12, Raffinose 10% wt
  Zone of inhibition S. pyogenes 71-698: 3 mm
[3]; [8]
  Zone of inhibition S. pyogenes 71-698: 3 mm

## O=C[C@H](O)[C@@H](O)[C@@H](O)[C@H](O)CO [Galactose, D-galactose]
[1]; Streptococcus constellatus, T29, K12, Galactose 0.5% w/w, read-out: Size of zone inhibition normalised to control, S. constellatus T29
  zone of inhibition at 0.5 % strength: 14 mm
[1]; Streptococcus constellatus, T29, K12, Galactose 1.25% w/w, read-out: Size of zone inhibition normalised to control, S. constellatus T29
  zone of inhibition at 1.25 % strength: 15 mm
[1]; Streptococcus constellatus, T29, K12, Galactose 1.7% w/w, read-out: Size of zone inhibition normalised to control, S. constellatus T29
  zone of inhibition at 1.7 % strength: 12 mm
[1]; Streptococcus constellatus, T29, K12, Galactose 2.5% w/w, read-out: Size of zone inhibition normalised to control, S. constellatus T29
  zone of inhibition at 2.5 % strength: 13 mm
[1]; Streptococcus constellatus, T29, K12, Galactose 3.3% w/w, read-out: Size of zone inhibition normalised to control, S. constellatus T29
  zone of inhibition at 3.3 % strength: 10 mm
[1]; Streptococcus constellatus, T29, K12, Galactose 5% w/w, read-out: Size of zone inhibition normalised to control, S. constellatus T29
  zone of inhibition at 5 % strength: 0 mm
[2]; Streptococcus mutans, OMZ175, K12, Galactose 0.5% w/w, read-out: Size of zone inhibition normalised to control, S. mutans OMZ175
  zone of inhibition at 0.5 % strength: 10 mm
[2]; Streptococcus mutans, OMZ175, K12, Galactose 1.25% w/w, read-out: Size of zone inhibition normalised to control, S. mutans OMZ175
  zone of inhibition at 1.25 % strength: 10 mm
[2]; Streptococcus mutans, OMZ175, K12, Galactose 1.7% w/w, read-out: Size of zone inhibition normalised to control, S. mutans OMZ175
  zone of inhibition at 1.7 % strength: 0 mm
[2]; Streptococcus mutans, OMZ175, K12, Galactose 2.5% w/w, read-out: Size of zone inhibition normalised to control, S. mutans OMZ175
  zone of inhibition at 2.5 % strength: 0 mm
[2]; Streptococcus mutans, OMZ175, K12, Galactose 3.3% w/w, read-out: Size of zone inhibition normalised to control, S. mutans OMZ175
  zone of inhibition at 3.3 % strength: 0 mm
[2]; Streptococcus mutans, OMZ175, K12, Galactose 5% w/w, read-out: Size of zone inhibition normalised to control, S. mutans OMZ175
  zone of inhibition at 5 % strength: 0 mm
[3]; Streptococcus pyogenes, 71698, K12, Galactose 0.5% w/w, read-out: Size of zone inhibition normalised to control, S. pyogenes 71-698
  zone of inhibition at 0.5 % strength: 4.5 mm
[3]; Streptococcus pyogenes, 71698, K12, Galactose 1.25% w/w, read-out: Size of zone inhibition normalised to control, S. pyogenes 71-698
  zone of inhibition at 1.25 % strength: 3.5 mm
[3]; Streptococcus pyogenes, 71698, K12, Galactose 1.7% w/w, read-out: Size of zone inhibition normalised to control, S. pyogenes 71-698
  zone of inhibition at 1.7 % strength: 3.5 mm
[3]; Streptococcus pyogenes, 71698, K12, Galactose 2.5% w/w, read-out: Size of zone inhibition normalised to control, S. pyogenes 71-698
  zone of inhibition at 2.5 % strength: 5.5 mm
[3]; Streptococcus pyogenes, 71698, K12, Galactose 3.3% w/w, read-out: Size of zone inhibition normalised to control, S. pyogenes 71-698
  zone of inhibition at 3.3 % strength: 1.5 mm
[3]; Streptococcus pyogenes, 71698, K12, Galactose 5% w/w, read-out: Size of zone inhibition normalised to control, S. pyogenes 71-698
  zone of inhibition at 5 % strength: 0 mm

— patent US20240390434A1, “PROBIOTIC ENHANCERS AND USES THEREOF” (Blis Technologies Limited, priority 2021, published 2024)
